Among the data in patent publication US11739070B2, “C5A receptor modulators” (IDORSIA PHARMACEUTICALS LTD, priority 2018, dated 2023) are IC50 values, retold here.

SMILES strings stand for the structures.

As usually defined, the IC50 is the midpoint of a concentration-inhibition curve.

The target in the experiment is T1, C5AR1 (Homo sapiens, UniProt P21730).
T1 construct: host or cells: CHO-K1
T1 sequence (P21730 1-350): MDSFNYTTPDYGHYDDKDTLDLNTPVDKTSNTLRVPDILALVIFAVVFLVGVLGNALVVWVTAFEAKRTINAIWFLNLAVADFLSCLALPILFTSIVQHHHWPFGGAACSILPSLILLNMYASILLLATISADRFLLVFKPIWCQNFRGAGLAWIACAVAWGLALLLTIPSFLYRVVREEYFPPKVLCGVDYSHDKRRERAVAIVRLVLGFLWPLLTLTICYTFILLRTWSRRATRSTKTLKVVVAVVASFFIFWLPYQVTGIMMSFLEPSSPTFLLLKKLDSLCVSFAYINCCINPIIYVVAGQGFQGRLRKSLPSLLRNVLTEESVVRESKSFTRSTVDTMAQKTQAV
Nature of the experiment: hC5a DISCO IC50 assay (PathHunter beta-arrestin, antagonist mode). The format is cell-based. The conditions noted are these: CHO-K1 C5AR1 beta-arrestin cell line; antagonist vs 1-10 nM C5a agonist; geometric mean values; read-out: C5aR IC50. Here is the method:
II. Biological Assays In Vitro Assay hC5a DISCO IC50 Assay
5 μl Antagonist at 6-fold end concentration or DMSO control is added to assay medium and subsequently 5 μl 1-10 nM C5a agonist at 6 fold end concentration. Cells are centrifuged for 1 min at 1000 rpm and incubated for 1.5 hour in at 37° C. Plates are equilibrated at room temperature for several minutes before adding 12 μl/well Detection Reagent (PathHunter Detection Kit, DiscoverX, Cat #93-0001). Plates are centrifuged for 1 min at 1000 rpm and incubated for 45 minutes at RT before being measured on a Fluostar Optima, BMG Labtech. IC50 values are calculated from a serial dilution range of antagonist using inhouse software and given in nmol/l.
The calculated IC50 values may fluctuate depending on the daily cellular assay performance. Fluctuations of this kind are known to those skilled in the art. Average IC50 values from several measurements are given as geometric mean values.

As for `CCOC(=O)N1CC[C@@H](n2c(=O)n(Cc3ccccc3C(F)(F)F)c3c(OC)cccc32)C1` [Example 60, (R)-3-[4-Methoxy-2-oxo-3-(2-trifluoromethyl-benzyl)-2,3-dihydro-benzoimidazol-1-yl]-pyrrolidine-1-carboxylic acid ethyl ester], the IC50 was found to be 84 nM.
The value for `COc1cccc2c1n(Cc1ncccc1C(F)(F)F)c(=O)n2[C@@H]1CCN(c2c(C)cccc2F)C1` [Example 202, 1-[(R)-1-(2-Fluoro-6-methyl-phenyl)-pyrrolidin-3-yl]-4-methoxy-3-(3-trifluoromethyl-pyridin-2-ylmethyl)-1,3-dihydro-benzoimidazol-2-one] was 2 nM.
The value for `COc1cccc2c1n(Cc1nccnc1C(F)(F)F)c(=O)n2[C@@H]1CCN(c2c(C)cccc2F)C1` [Example 167, 1-[(R)-1-(2-Fluoro-6-methyl-phenyl)-pyrrolidin-3-yl]-4-methoxy-3-(3-trifluoromethyl-pyrazin-2-ylmethyl)-1,3-dihydro-benzoimidazol-2-one] was 6 nM.
The figure for `COc1cccc2c1n(Cc1ccccc1C(F)(F)F)c(=O)n2C1CCCN(c2c(C)cccc2C)CC1` (stereo not drawn) [Example 185, 1-[1-(2,6-Dimethyl-phenyl)-azepan-4-yl]-4-methoxy-3-(2-trifluoromethyl-benzyl)-1,3-dihydro-benzoimidazol-2-one] is 36 nM.
Take `COc1cccc2c1n(Cc1ccccc1C(F)(F)F)c(=O)n2C1CCN(c2c(F)ccnc2C)CC1` [Example 244, 1-(4′-Fluoro-2′-methyl-3,4,5,6-tetrahydro-2H-[1,3′]bipyridinyl-4-yl)-4-methoxy-3-(2-trifluoromethyl-benzyl)-1,3-dihydro-benzoimidazol-2-one]: the IC50 was found to be 227 nM.
The value for `COc1cccc2c1n(Cc1ccccc1C(F)(F)F)c(=O)n2C1CCN(c2ccccc2OC2CCC2)CC1` [Example 241, 1-[1-(2-Cyclobutoxy-phenyl)-piperidin-4-yl]-4-methoxy-3-(2-trifluoromethyl-benzyl)-1,3-dihydro-benzoimidazol-2-one] was 36 nM; that for `Cc1cccc(C)c1N1CC[C@@H](n2c(=O)n(Cc3ccccc3C(F)(F)F)c3c(O)cccc32)C1` [Example 44, 1-[(R)-1-(2,6-Dimethyl-phenyl)-pyrrolidin-3-yl]-4-hydroxy-3-(2-trifluoromethyl-benzyl)-1,3-dihydro-benzoimidazol-2-one] was 13 nM; that for `COc1cccc2c1n(Cc1ccccc1OC(C)C)c(=O)n2[C@@H]1CCN(c2c(C)cccc2F)C1` [Example 165, 1-[(R)-1-(2-Fluoro-6-methyl-phenyl)-pyrrolidin-3-yl]-3-(2-isopropoxy-benzyl)-4-methoxy-1,3-dihydro-benzoimidazol-2-one] was 6 nM.
The figure for `COc1cccc2c1n(Cc1nnccc1C)c(=O)n2[C@@H]1CCN(c2c(C)cccc2F)C1` [Example 174, 1-[(R)-1-(2-Fluoro-6-methyl-phenyl)-pyrrolidin-3-yl]-4-methoxy-3-(4-methyl-pyridazin-3-ylmethyl)-1,3-dihydro-benzoimidazol-2-one] is 544 nM; for `COc1cncc(OC)c1N1CC[C@@H](n2c(=O)n(Cc3ccccc3C(F)(F)F)c3c(OC)cccc32)C1` [Example 38, 1-[(R)-1-(3,5-Dimethoxy-pyridin-4-yl)-pyrrolidin-3-yl]-4-methoxy-3-(2-trifluoromethyl-benzyl)-1,3-dihydro-benzoimidazol-2-one] it is 470 nM; for `COc1cccc2c1n(Cc1ccccc1C(F)(F)F)c(=O)n2[C@@H]1CCN(c2c(F)cccc2C#N)C1` [Example 82, 3-Fluoro-2-{(R)-3-[4-methoxy-2-oxo-3-(2-trifluoromethyl-benzyl)-2,3-dihydro-benzoimidazol-1-yl]-pyrrolidin-1-yl}-benzonitrile] it is 28 nM.
The value for `COc1cc(C)nc2c1n(Cc1ccccc1C(F)(F)F)c(=O)n2[C@@H]1CCN(c2c(C)cccc2F)C1` [Example 171, 3-[(R)-1-(2-Fluoro-6-methyl-phenyl)-pyrrolidin-3-yl]-7-methoxy-5-methyl-1-(2-trifluoromethyl-benzyl)-1,3-dihydro-imidazo[4,5-b]pyridin-2-one] was 64 nM; that for `COc1cccc2c1n(Cc1ccccc1C(F)(F)F)c(=O)n2C1CCN(c2ccccc2OCC2CC2)CC1` [Example 240, 1-[1-(2-Cyclopropylmethoxy-phenyl)-piperidin-4-yl]-4-methoxy-3-(2-trifluoromethyl-benzyl)-1,3-dihydro-benzoimidazol-2-one] was 46 nM; that for `COc1cccc2c1n(Cc1ccccc1C(F)(F)F)c(=O)n2[C@@H]1CCN(C(=O)OC(C)(C)C)C1` [Example 6, (R)-3-[4-Methoxy-2-oxo-3-(2-trifluoromethyl-benzyl)-2,3-dihydro-benzoimidazol-1-yl]-pyrrolidine-1-carboxylic acid tert-butyl ester] was 66 nM.
For the compound `COc1cccc2c1n(Cc1ccccc1C(F)(F)F)c(=O)n2[C@@H]1CCN(C(=O)OC2(C)COC2)C1` [Example 70, (R)-3-[4-Methoxy-2-oxo-3-(2-trifluoromethyl-benzyl)-2,3-dihydro-benzoimidazol-1-yl]-pyrrolidine-1-carboxylic acid 3-methyl-oxetan-3-yl ester], the IC50 stood at 538 nM.
The figure for `CCCCOc1ccccc1N1CCC(n2c(=O)n(Cc3ccccc3C(F)(F)F)c3c(OC)cccc32)CC1` [Example 243, 1-[1-(2-Butoxy-phenyl)-piperidin-4-yl]-4-methoxy-3-(2-trifluoromethyl-benzyl)-1,3-dihydro-benzoimidazol-2-one] is 61 nM; for `COc1nccc2c1n(Cc1ccccc1C(F)(F)F)c(=O)n2[C@@H]1CCN(c2c(C)ccnc2F)C1` [Example 48, 1-[(R)-1-(2-Fluoro-4-methyl-pyridin-3-yl)-pyrrolidin-3-yl]-4-methoxy-3-(2-trifluoromethyl-benzyl)-1,3-dihydro-imidazo[4,5-c]pyridin-2-one] it is 165 nM; for `COc1cccc2c1n(Cc1ccccc1C(F)(F)F)c(=O)n2[C@@H]1CCN(c2c(N)cccc2F)C1` [Example 155, 1-[(R)-1-(2-Amino-6-fluoro-phenyl)-pyrrolidin-3-yl]-4-methoxy-3-(2-trifluoromethyl-benzyl)-1,3-dihydro-benzoimidazol-2-one] it is 15 nM.
Turning to `COc1cccc2c1n(Cc1ccccc1C(F)(F)F)c(=O)n2C1CCN(C(=O)OC(C)(C)C)C(C)C1` (stereo not drawn) [Example 144, 4-[4-Methoxy-2-oxo-3-(2-trifluoromethyl-benzyl)-2,3-dihydro-benzoimidazol-1-yl]-2-methyl-piperidine-1-carboxylic acid tert-butyl ester], the IC50 worked out at 312 nM.
The value for `Cc1cccc(F)c1N1CC[C@@H](n2c(=O)n(Cc3ccccc3C(F)(F)F)c3c(OCC4COC(C)(C)O4)cccc32)C1` (stereo partly drawn) [Example 151, 4-(2,2-Dimethyl-[1,3]dioxolan-4-ylmethoxy)-1-[(R)-1-(2-fluoro-6-methyl-phenyl)-pyrrolidin-3-yl]-3-(2-trifluoromethyl-benzyl)-1,3-dihydro-benzoimidazol-2-one] was 31 nM; that for `COc1cccc2c1n(Cc1cnccc1C(C)C)c(=O)n2C1CCN(c2c(C)cccc2F)CC1` [Example 181, 1-[1-(2-Fluoro-6-methyl-phenyl)-piperidin-4-yl]-3-(4-isopropyl-pyridin-3-ylmethyl)-4-methoxy-1,3-dihydro-benzoimidazol-2-one] was 22 nM.
